In patent publication US8134015B2, “Compound inhibiting in vivo phosphorous transport and medicine containing the same” (Kyowa Hakko Kirin Co., Ltd., priority 2003, dated 2012) one finds IC50 and inhibition data, which are given here for 26 molecules.

Some results are limits rather than exact numbers.

Usually IC50 stands for the point on the concentration scale where inhibition reaches its midpoint. Usually inhibition stands for the relative decrease from the control value, in per cent. Low values mean little suppression, high ones strong suppression.

The first experiment deals with T1, rat NaPi-2b (Rattus norvegicus, UniProt Q9JJ09).
T1 construct: expressed in transfected cells; host or cells: Xenopus oocytes injected with cRNA
T1 sequence (Q9JJ09 1-695): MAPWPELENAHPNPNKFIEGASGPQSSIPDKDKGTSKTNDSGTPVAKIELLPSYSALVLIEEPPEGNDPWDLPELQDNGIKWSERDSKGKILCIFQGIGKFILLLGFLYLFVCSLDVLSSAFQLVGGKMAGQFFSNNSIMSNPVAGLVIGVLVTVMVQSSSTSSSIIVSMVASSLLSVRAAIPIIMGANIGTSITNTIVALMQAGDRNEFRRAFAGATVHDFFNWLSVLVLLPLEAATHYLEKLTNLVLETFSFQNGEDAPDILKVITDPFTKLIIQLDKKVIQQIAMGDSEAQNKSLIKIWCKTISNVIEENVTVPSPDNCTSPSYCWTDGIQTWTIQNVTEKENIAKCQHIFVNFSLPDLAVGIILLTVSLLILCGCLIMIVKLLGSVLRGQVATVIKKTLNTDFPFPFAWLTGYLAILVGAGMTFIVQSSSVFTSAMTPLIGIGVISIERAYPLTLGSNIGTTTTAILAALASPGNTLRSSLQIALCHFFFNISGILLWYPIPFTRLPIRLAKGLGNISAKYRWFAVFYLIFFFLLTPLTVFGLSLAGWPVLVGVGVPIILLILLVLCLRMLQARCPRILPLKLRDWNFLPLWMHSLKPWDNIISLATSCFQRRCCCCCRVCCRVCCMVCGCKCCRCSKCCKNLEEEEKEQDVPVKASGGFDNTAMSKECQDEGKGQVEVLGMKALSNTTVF
As to the kind of experiment: Sodium-dependent phosphate uptake of Xenopus oocytes which expressed NaPi-2b (32P). It counts as cell-based. To be noted: Xenopus oocytes expressing rat NaPi-2b, 32P radioactive phosphorus; read-out: IC50 (phosphate uptake inhibitory activity). Put shortly: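 Inhibition at 300 μM and 100 μM was read off one inhibition curve of 32P phosphate uptake. Uptake was measured in Xenopus oocytes cultured 2 days after injection of cRNA for cloned rat NaPi-2b.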
`Cn1cccc1/C=N/NC(=O)c1cc(Cl)ccc1NC(=O)c1cccnc1` [Compound 212, N-[4-Chloro-2-(1-methyl-1H-pyrrol-2-ylmethylene-hydrazinocarbonyl)-phenyl]-nicotinamide]: the IC50 turned out to be 71.3 µM.

Consider `COc1cccc(/C=N/NC(=O)c2cc(I)ccc2NC(=O)c2cccc(CN3CCC(N4CCCCC4)CC3)c2)c1` [Compound 488, 3-[1,4′]Bipiperidinyl-1′-ylmethyl-N-[4-iodo-2-(3-methoxy-benzylidene-hydrazinocarbonyl)-phenyl]-benzamide], for which the IC50 is less than 3 µM. On the same count and under the same terms, with `CCN(CC)CCN(C)Cc1cccc(C(=O)Nc2sc3c(c2C(=O)N/N=C/c2ccc(C)c(C)c2)CCCC3)c1` [Compound 609, 3-{[(2-Diethylamino-ethyl)-methyl-amino]-methyl}-N-[3-(3,4-dimethyl-benzylidene-hydrazinocarbonyl)-4,5,6,7-tetrahydro-benzo[b]thiophen-2-yl]-benzamide] the figure was less than 0.3 µM; with `CCN(CC)CCNCc1cccc(C(=O)Nc2sc3c(c2C(=O)N/N=C/c2cccc(F)c2)CCC3)c1` [Compound 812, 3-[(2-Diethylamino-ethylamino)-methyl]-N-[3-(3-fluoro-benzylidene-hydrazinocarbonyl)-5,6-dihydro-4H-cyclopenta[b]thiophen-2-yl]-benzamide], 5.58 µM; with `COc1ccc(C(=O)Nc2ccc(Br)cc2C(=O)N/N=C/c2cccnc2)cc1OC` [Compound 110, N-[4-Bromo-2-(pyridin-3-ylmethylene-hydrazinocarbonyl)-phenyl]-3,4-dimethoxy-benzamide], 7.7 µM. On to `COc1ccc(C(=O)Nc2ccccc2C(=O)N/N=C/c2ccccc2Br)cc1OC` [Compound 10, N-[2-(2-Bromo-benzylidene-hydrazinocarbonyl)-phenyl]-3,4-dimethoxy-benzamide], for which the IC50 stood at 26.1 µM. Same read-out and setting: to `C/C(=N\NC(=O)c1cc(Br)ccc1NC(=O)c1cccnc1)c1cccc(C)c1` [Compound 215, N-[4-Bromo-2-(1-m-toluyl-ethylidene-hydrazinocarbonyl)-phenyl]-nicotinamide] belongs less than 3 µM; to `COc1ccc(C(=O)Nc2ccccc2C(=O)N/N=C/c2ccc(O)cc2)cc1OC` [Compound 19, N-[2-(4-Hydroxy-benzylidene-hydrazinocarbonyl)-phenyl]-3,4-dimethoxy-benzamide], 8.16 µM; to `Cc1csc(NC(=O)c2cccc(CN3CCC(N4CCCCC4)CC3)c2)c1C(=O)N/N=C/c1ccc(F)cc1` [Compound 571, 3-[1,4′]Bipiperidinyl-1′-ylmethyl-N-[3-(4-fluoro-benzylidene-hydrazinocarbonyl)-4-methyl-thiophen-2-yl]-benzamide], 5.27 µM. The same measure, in the same setting: with `Cc1ccc(/C=N/NC(=O)c2cc(Br)ccc2NC(=O)c2cccc(CSc3nc[nH]n3)c2)cc1` [Compound 268, N-[4-Bromo-2-(4-methyl-benzylidene-hydrazinocarbonyl)-phenyl]-3-(1H-[1,2,4]triazol-3-ylsulfanylmethyl)-benzamide] the figure was 1.02 µM. Still for that read-out and setting: to `COc1ccc(C(=O)Nc2ccc(OCCCN(C)C)cc2C(=O)N/N=C/c2ccc(F)cc2)cc1OC` [Compound 125, N-[4-(3-Dimethylamino-propoxy)-2-(4-fluoro-benzylidene-hydrazinocarbonyl)-phenyl]-3,4-dimethoxy-benzamide] belongs 136 µM; to `CCN(CC)CCN(C)Cc1cccc(C(=O)Nc2ccc(N3CCCN(C)CC3)cc2C(=O)N/N=C/c2ccc(Cl)c(C(F)(F)F)c2)c1` [Compound 922, N-[2-(4-Chloro-3-trifluoromethyl-benzylidene-hydrazinocarbonyl)-4-(4-methyl-[1,4]diazepan-1-yl)-phenyl]-3-{[(2-diethylamino-ethyl)-methyl-amino]-methyl}-benzamide], 2.89 µM. `Cc1cccc(/C=N/NC(=O)c2cc(Br)ccc2NC(=O)c2cccs2)c1` [Compound 159, Thiophene-2-carboxylic acid [4-bromo-2-(3-methyl-benzylidene-hydrazinocarbonyl)-phenyl]-amide]: the IC50 was found to be 4.35 µM. On the same count and under the same terms, to `CCN(CC)CCN(C)Cc1ccc(C(=O)Nc2ccc(Br)cc2C(=O)N/N=C/c2ccc(Cl)c(C(F)(F)F)c2)cc1` [Compound 289, N-[4-Bromo-2-(4-chloro-3-trifluoromethyl-benzylidene-hydrazinocarbonyl)-phenyl]-4-{[(2-diethylamino-ethyl)-methyl-amino]-methyl}-benzamide] belongs 2.89 µM; to `CCOc1ccc(C(=O)Nc2ccc(Br)cc2C(=O)N/N=C/c2ccc(F)cc2)cc1` [Compound 502, N-[4-Bromo-2-(4-fluoro-benzylidene-hydrazinocarbonyl)-phenyl]-4-ethoxy-benzamide], 15.7 µM.

Turning to `CCN(CC)CCN(C)Cc1cccc(C(=O)Nc2ccc(N3CCOCC3)cc2C(=O)N/N=C/c2ccc(OC)cc2)c1` [Compound 1076, 3-{[(2-Diethylamino-ethyl)-methyl-amino]-methyl}-N-[2-(4-methoxy-benzylidene-hydrazinocarbonyl)-4-morpholin-4-yl-phenyl]-benzamide], the IC50 was 2.57 µM. For the molecule `O=c1c2c3c(sc2nc(-c2cccc(CSc4nc[nH]n4)c2)n1/N=C/c1cccc(F)c1)CCCC3` [Compound 649, 3-[(3-Fluoro-benzylidene)-amino]-2-[3-(1H-[1,2,4]triazol-3-ylsulfanylmethyl)-phenyl]-5,6,7,8-tetrahydro-3H-benzo[4,5]thieno[2,3-d]pyrimidin-4-one], the IC50 came to 2.69 µM.

Consider `O=C(Nc1ccc(Br)cc1C(=O)N/N=C/c1ccc(Cl)c(C(F)(F)F)c1)c1cccc(CSc2ccncc2)c1` [Compound 200, N-[4-Bromo-2-(4-chloro-3-trifluoromethyl-benzylidene-hydrazinocarbonyl)-phenyl]-3-(pyridin-4-ylsulfanylmethyl)-benzamide], for which the half-maximal inhibitory concentration (IC50) was 0.39 µM. Same read-out and setting: to `COc1ccc(C(=O)Nc2ccccc2C(=O)N/N=C/c2ccc(OC(F)(F)F)cc2)cc1OC` [Compound 33, 3,4-Dimethoxy-N-[2-(4-trifluoromethoxy-benzylidene-hydrazinocarbonyl)-phenyl]-benzamide] belongs 15 µM; to `Cc1ccc(/C=N/NC(=O)c2c(C)csc2NC(=O)c2cccc(CN(C)C)c2)cc1` [Compound 823, 3-Dimethylaminomethyl-N-[4-methyl-3-(4-methyl-benzylidene-hydrazinocarbonyl)-thiophen-2-yl]-benzamide], 6.93 µM; to `CCc1ccc(C(=O)Nc2ccc(Br)cc2C(=O)N/N=C/c2ccc(F)cc2)cc1` [Compound 179, N-[4-Bromo-2-(4-fluoro-benzylidene-hydrazinocarbonyl)-phenyl]-4-ethyl-benzamide], 18.7 µM. The same measure, in the same setting: with `O=C(Nc1ccc(Br)cc1C(=O)N/N=C/c1ccc(F)cc1)c1ccc(CN2CCC(CO)CC2)cc1` [Compound 335, N-[4-Bromo-2-(4-fluoro-benzylidene-hydrazinocarbonyl)-phenyl]-4-(4-hydroxymethyl-piperidin-1-ylmethyl)-benzamide] the figure was 5.86 µM; with `O=C(Nc1sc2c(c1C(=O)N/N=C/c1cccc(F)c1)CCCC2)c1cccc(CN2CCN(CCO)CC2)c1` [Compound 624, N-[3-(3-Fluoro-benzylidene-hydrazinocarbonyl)-4,5,6,7-tetrahydro-benzo[b]thiophen-2-yl]-3-[4-(2-hydroxy-ethyl)-piperazin-1-ylmethyl]-benzamide], less than 3 µM.

The same experiment, now with this note: phosphate uptake, oocytes expressing rat NaPi-2b; 100 μM, determined from inhibition curve.
In turn, `O=C(Nc1ccc(N2CCC(CO)CC2)cc1C(=O)N/N=C/c1ccc(Cl)c(C(F)(F)F)c1)c1cccc(CSCCO)c1` [Compound 1063, N-[2-(4-Chloro-3-trifluoromethyl-benzylidene-hydrazinocarbonyl)-4-(4-hydroxymethyl-piperidin-1-yl)-phenyl]-3-(2-hydroxy-ethylsulfanylmethyl)-benzamide] gave an inhibition at 100 µM of 63.9%.

The experiment is the same for the next values; noted with them: phosphate uptake, oocytes expressing rat NaPi-2b; 300 μM, determined from inhibition curve.
In the case of `Cc1ccc(/C=N/NC(=O)c2cc(Cl)ccc2NC(=O)c2cccc(CN(C)CCCCCCN(C)Cc3cccc(C(=O)Nc4ccc(Cl)cc4C(=O)N/N=C/c4ccc(C)cc4)c3)c2)cc1` [Compound 706, N1-[4-Chloro-2-({2-[(E)-1-(4-methylphenyl)methylidene]hydrazino}carbonyl}phenyl}-3-{[{6-[(3-{[4-chloro-2-({2-[(E)-1-(4-methylphenyl)methylidene]hydrazino}carbonyl}-anilino}carbonyl}benzyl}(methyl)amino)hexyl)(methyl)amino]methyl]-benzamide], 300 µM produced 47.8% inhibition. On to `CCN(CC)CCN(C)Cc1cccc(C(=O)Nc2ccc(N3CCCN(C)CC3)cc2C(=O)N/N=C/c2ccc(OC)cc2)c1` [Compound 931, 3-{[(2-Diethylamino-ethyl)-methyl-amino]-methyl}-N-[2-(4-methoxy-benzylidene-hydrazinocarbonyl)-4-(4-methyl-[1,4]diazepan-1-yl)-phenyl]-benzamide], for which the inhibition at 300 µM was 31.2%.
